# In patent publication US5686486A, “4-hydroxy-benzopyran-2-ones and 4-hydroxy-cycloalkyl[b]pyran-2-ones useful to treat retroviral infections” (priority 1995, dated 1997):
# Read-outs that look alike come from different tables or passages of the source.
# Biological target: HIV-1 protease (Human immunodeficiency virus type 1 group M subtype B, UniProt P04585)
# Assay: biochemical
# Conditions: for inhibition at 0.123 µM: read-out: HIV-1 Protease % Inhib, dose 0.123 uM
# How it was run: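 Percent inhibition derived from fluorescent cleavage product separated by filtration after streptavidin-bead capture of intact biotin/FITC substrate. Reaction: enzyme (10 μl, 0.1 μM stock) with substrate (20 μl, 0.2 μM stock) and compound, 1 h at room temperature in dark, pH 5.5 acetate buffer with 1.0 M NaCl and 0.05% NP-40.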
# [1] = read-out: HIV-1 Protease % Inhib, dose 0.370 uM
# [2] = read-out: HIV-1 Protease % Inhib, dose 1.100 uM
# [3] = read-out: HIV-1 Protease % Inhib, dose 3.300 uM
# [4] = read-out: HIV-1 Protease % Inhib, dose 10.000 uM
# [5] = read-out: HIV-1 Protease % Inhib, dose 30.000 uM
# [6] = dose 1.100 uM, read-out: HIV-1 Protease % Inhib
# [7] = dose 3.300 uM, read-out: HIV-1 Protease % Inhib
# [8] = dose 10.000 uM, read-out: HIV-1 Protease % Inhib
# [9] = dose 30.000 uM, read-out: HIV-1 Protease % Inhib
# [10] = read-out: HIV-1 Protease % Inhib
SMILES,inhibition at 0.123 µM [%],inhibition at 0.37 µM [1] [%],inhibition at 1.1 µM [2] [%],inhibition at 3.3 µM [3] [%],inhibition at 10 µM [4] [%],inhibition at 30 µM [5] [%],other results
"O=c1oc2c(c(O)c1C(c1cccc(NS(=O)(=O)c3ccccc3Cl)c1)C1CC1)CCCCCC2 (stereo not shown) [Example 293, 2-Chloro-N-[3-[cyclopropyl(5,6,7,8,9,10-hexahydro-4-hydroxy-2-oxo-2H-cycloocta[b]pyran-3-yl)methyl]phenyl]-benzenesulfonamide]",54.9,82.4,96.8,107,105,109,–
"O=c1oc2c(c(O)c1C(c1cccc(NS(=O)(=O)c3c(Cl)cccc3Cl)c1)C1CC1)CCCCCC2 (stereo not shown) [Example 295, 2,6-Dichloro-N-[3-[cyclopropyl(5,6,7,8,9,10-hexahydro-4-hydroxy-2'-oxo-2H-cycloocta[b]pyran-3-yl)methyl]phenyl]-benzenesulfonamide]",–,–,–,–,–,–,inhibition at 1.1 µM [6]: 25.9%; inhibition at 3.3 µM [7]: 57%; inhibition at 10 µM [8]: 87.5%; inhibition at 30 µM [9]: 100%
"Cn1cnc(S(=O)(=O)Nc2cccc([C@@H](c3c(O)c4c(oc3=O)CCCCCC4)C3CC3)c2)c1 [Example 297, N-[3-[Cyclopropyl(5,6,7,8,9,10-hexahydro-4-hydroxy-2-oxo-2H-cycloocta-3-yl)methyl]phenyl]-1-methyl-(S)-1H-imidazole-4-sulfonamide]",72,86,101,99.8,102,99.5,–
"O=c1oc2c(c(O)c1C(c1cccc(NS(=O)(=O)c3ccc(I)cc3)c1)C1CC1)CCCCCC2 (stereo not shown) [Example 300, N-[3-[Cyclopropyl(5,6,7,8,9,10-hexahydro-4-hydroxy-2-oxo-2H-cycloocta[b]pyran-3-yl)methyl]phenyl]-4-iodo-benzenesulfonamide]",68.8,92.2,101,102,108,108,–
"O=c1oc2c(c(O)c1C(c1cccc(NS(=O)(=O)c3ccc(Cl)cc3Cl)c1)C1CC1)CCCCCC2 (stereo not shown) [Example 305, 2,4-Dichloro-N-[3-[cyclopropyl(5,6,7,8,9,10-hexahydro-4-hydroxy-2'-oxo-2H-cycloocta[b]pyran-3-yl)methyl]phenyl]-benzenesulfonamide]",60.4,86.2,92.4,95.2,99.8,107,–
"O=c1oc2c(c(O)c1C(c1cccc(NS(=O)(=O)c3c(Cl)cc(Cl)cc3Cl)c1)C1CC1)CCCCCC2 (stereo not shown) [Example 306, 2,4,6-Trichloro-N-[3-[cyclopropyl(5,6,7,8,9,10-hexahydro-4-hydroxy-2-oxo-2H-cycloocta[b]pyran-3-yl)methyl]phenyl]-benzenesulfonamide]",–,–,–,–,–,–,inhibition at 1.1 µM [6]: 24.4%; inhibition at 3.3 µM [7]: 53.2%; inhibition at 10 µM [8]: 74.5%; inhibition at 30 µM [9]: 86.2%
"CS(=O)(=O)Nc1cccc(C(c2c(O)c3c(oc2=O)CCCCCC3)C2CC2)c1 (stereo not shown) [Example 317, N-[3-[Cyclopropyl(5,6,7,8,9,10-hexahydro-4-hydroxy-2-oxo-2H-cycloocta[b]pyran-3-yl)methyl]phenyl]-methanesulfonamide]",27.8,46.7,81.7,101,102,113,–
"CC(=O)Nc1nc(C)c(S(=O)(=O)Nc2cccc(C(c3c(O)c4c(oc3=O)CCCCCC4)C3CC3)c2)s1 (stereo not shown) [Example 322, N-[5-[[[3-[Cyclopropyl(5,6,7,8,9,10-hexahydro-4-hydroxy-2-oxo-2H-cycloocta[b]pyran-3-yl)methyl]phenyl]amino]sulfonyl]-4-methyl-2-thiazolyl]-acetamide]",–,–,–,–,–,–,inhibition at 1.1 µM [6]: 22.3%; inhibition at 3.3 µM [7]: 61.1%; inhibition at 10 µM [8]: 91.8%; inhibition at 30 µM [9]: 106%
"O=c1oc2c(c(O)c1C(c1cccc(NS(=O)(=O)c3cccs3)c1)C1CC1)CCCCCC2 (stereo not shown) [Example 323, N-[3-[Cyclopropyl(5,6,7,8,9,10-hexahydro-4-hydroxy-2-oxo-2H-cycloocta[b]pyran-3-yl)methyl]phenyl]-2-thiophenesulfonamide]",62.8,91.8,100,104,118,112,–
"Cc1ccc(S(=O)(=O)Nc2cccc(C(c3c(O)c4c(oc3=O)CCCCCC4)C3CC3)c2)cc1 (stereo not shown) [Example 325, N-[3-[Cyclopropyl(5,6,7,8,9,10-hexahydro-4-hydroxy-2-oxo-2H-cycloocta[b]pyran-3-yl)methyl]phenyl]4-methyl-benzenesulfonamide]",59.8,86.6,95.6,105,115,115,–
"CCCCS(=O)(=O)Nc1cccc(C(c2c(O)c3c(oc2=O)CCCCCC3)C2CC2)c1 (stereo not shown) [Example 326, N-[3-[Cyclopropyl(5,6,7,8,9,10-hexahydro-4-hydroxy-2-oxo-2H-cycloocta[b]pyran-3-yl)methyl]phenyl]-1-butanesulfonamide]",51.6,92.6,102,106,114,121,–
"CC(C)S(=O)(=O)Nc1cccc(C(c2c(O)c3c(oc2=O)CCCCCC3)C2CC2)c1 (stereo not shown) [Example 328, N-[3-[Cyclopropyl(5,6,7,8,9,10-hexahydro-4-hydroxy-2-oxo-2H-cycloocta[b]pyran-3-yl)methyl]phenyl]-2-propanesulfonamide]",11.9,46,86.6,106,114,111,–
"Cc1cccc(C)c1S(=O)(=O)Nc1cccc(C(c2c(O)c3c(oc2=O)CCCCCC3)C2CC2)c1 (stereo not shown) [Example 329, N-[3-[Cyclopropyl(5,6,7,8,9,10-hexahydro-4-hydroxy-2-oxo-2H-cycloocta[b]pyran-3-yl)methyl]phenyl]-2,6-dimethyl-benzenesulfonamide]",–,–,–,–,–,–,inhibition at 0.37 µM [10]: 10.2%; inhibition at 1.1 µM [10]: 42.2%; inhibition at 3.3 µM [10]: 75.3%; inhibition at 10 µM [10]: 91.8%; inhibition at 30 µM [10]: 102%
"Cc1ccccc1S(=O)(=O)Nc1cccc(C(c2c(O)c3c(oc2=O)CCCCCC3)C2CC2)c1 (stereo not shown) [Example 330, N-[3-[Cyclopropyl(5,6,7,8,9,10-hexahydro-4-hydroxy-2-oxo-2H-cycloocta[b]pyran-3-yl)methyl]phenyl]-2-methyl-benzenesulfonamide]",47.2,83.8,106,109,115,106,–
"COc1cccc(OC)c1S(=O)(=O)Nc1cccc(C(c2c(O)c3c(oc2=O)CCCCCC3)C2CC2)c1 (stereo not shown) [Example 334, N-[3-[Cyclopropyl(5,6,7,8,9,10-hexahydro-4-hydroxy-2-oxo-2H-cycloocta[b]pyran-3-yl)methyl]phenyl]-2,6-dimethoxy-benzenesulfonamide]",–,–,–,–,–,–,"inhibition at 0.37 µM (dose 0.370 uM, read-out: HIV-1 Protease % Inhib): 13.6%; inhibition at 1.1 µM [6]: 42.3%; inhibition at 3.3 µM [7]: 69%; inhibition at 10 µM [8]: 87.6%; inhibition at 30 µM [9]: 89.5%"
